This note sets out measurements from patent publication US20030158118A1, “Combination of cimetidine and cysteine derivatives for treating cancer” (priority 2001, published 2003).

In the test the test system is CT26 colorectal cancer cells. The test can be described thus: Tumor growth in BALB/c mice grafted with syngenic CT26 colorectal cancer cells. The class given is in vivo. The following applies: day 33; drinking water: compound 20 1.5 mg/ml (150 mg/kg daily), cimetidine or N-acetyl cysteine 0.75 mg/ml (75 mg/kg daily); vs vehicle. The method, then: The effect of a complex of the invention and the effect of the components of the complex is tested on tumor growth in BALB/c mice grafted with syngenic CT26 colorectal cancer cells. The aim of the study is to compare the effect on tumor growth of the complex of the invention versus the effect of the two components of the complex individually. […] Compound 20, cimetidine and […] dissolved in drinking water. […] The solutions are available ad libitum in the entire study period. […] The doses of cimetidine and N-acetylcysteine are selected to correspond to the doses of each individual compound obtained by administration of […] of compound 20. In these studies, female BALB/c mice with an age of 6 weeks are used. Ten mice are included per group. The mice are caged in standard cages at a temperature of 21° C.-23° C. controlled via the ambient ventilation system in the laboratory. Light cycle is 12-hour dark and 12-hour light (lights on 06.00). Diet is Altromin 1314 special formulation, Produced by Altromin Denmark, Chr. Pedersen A/S, 4100 Ringsted, Denmark. Water is acidified with citric acid. Diet and water is administered ad libitum. The mice are randomised to test groups of ten mice. After one week of acclimatisation each mouse is injected subcutaneously with appr. […] Tumor diameters are measured in two dimensions using a digital slide gauge.

The structures appear in SMILES notation.

Take `CN/C(=N/CCSCc1nc[nH]c1C)NC#N` [cimetidine]: the tumor growth inhibited came to 8%.
As to `CC(=O)N[C@@H](CS)C(=O)O` [N-acetyl cysteine], the tumor growth inhibited turned out to be 19%.
